From the supplement of paper PMC10307832 come the findings set out here.

Holding throughout (assay): relative viability (nuclei count vs DMSO), 5 days (fraction); higher = more cells survive
Compound in test [1]: Cn1c(=O)n(-c2ccc(C(C)(C)C#N)cc2)c2c3cc(-c4cnc5ccccc5c4)ccc3ncc21 [Dactolisib] + COc1cccc2cc(-c3nc([C@H]4CC[C@H](C(=O)O)CC4)n4ncnc(N)c34)[nH]c12 [OSI-027] (partner 0.5 µM)
The method, boiled down:
(§1)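 Relative viability divides the nuclei count in treated wells by that in vehicle wells. Lung cancer cell lines were seeded in 1536-well plates, dosed by pin tool the next day, and fixed and stained after 5 days in one step with final 0.05% Triton X-100, 1% formaldehyde and 1 ug/ml Hoechst. Dosing was a single drug or a fixed anchor-drug dose plus five library-drug doses (not always all listed) in √10 steps, and values are medians of duplicate plates imaged at 4×.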

Compound in test [2]: C1CCC(CC1)N(CCNCCC2=C3C(=C(C=C2)O)NC(=O)CO3)C(=O)CCNCCC4=CC(=C(C=C4)Cl)Cl [AZ505] + O=C(CCCCCCC(=O)Nc1ccccc1)NO [Vorinostat] (partner 1 µM)
The essentials:
as §1

Compound in test [3]: Cn1c(=O)n(-c2ccc(C(C)(C)C#N)cc2)c2c3cc(-c4cnc5ccccc5c4)ccc3ncc21 [Dactolisib] + Nc1ncn([C@H]2C[C@H](O)[C@@H](CO)O2)c(=O)n1 [Decitabine] (partner 2 µM)
The essentials:
as §1

Compound in test [4]: C1CCC(CC1)N(CCNCCC2=C3C(=C(C=C2)O)NC(=O)CO3)C(=O)CCNCCC4=CC(=C(C=C4)Cl)Cl [AZ505] + CC(C)C[C@H](NC(=O)[C@H](Cc1ccccc1)NC(=O)c1cnccn1)B(O)O [Bortezomib] (partner 0.002 µM)
The essentials:
as §1

Take UMC-11: the relative viability in test [1] (first compound 0.002 µM) amounted to 0.432; in test [1] (first compound 0.006325 µM), 0.537; in test [1] (first compound 0.02 µM), 0.394; in test [1] (first compound 0.06325 µM), 0.283; in test [1] (first compound 0.2 µM) it was 0.248; in test [2] (first compound 0.08 µM) it was 0.371. For the same cell line, the relative viability stood at 0.433 in test [2] (first compound 0.253 µM); 0.367 in test [2] (first compound 0.8 µM); 0.434 in test [2] (first compound 2.53 µM); 0.397 in test [2] (first compound 8 µM); 0.577 in test [3] (first compound 0.002 µM); 0.601 in test [3] (first compound 0.006325 µM). Also, the relative viability amounted to 0.514 in test [3] (first compound 0.02 µM); 0.366 in test [3] (first compound 0.06325 µM); 0.346 in test [3] (first compound 0.2 µM); 0.661 in test [4] (first compound 0.08 µM); 0.872 in test [4] (first compound 0.253 µM); 0.68 in test [4] (first compound 0.8 µM). The relative viability in test [4] (first compound 2.53 µM) is 0.734; in test [4] (first compound 8 µM), 0.939.
